This note sets out measurements from ChEMBL document CHEMBL6182856, “Novel one-/two-photon excited carbazole/quinolinium photosensitizers manifest nanomolar and hypoxia-resistant tumor photodynamic therapy by accelerating apoptosis, ferroptosis, and autophagy” (Eur J Med Chem, 2025).

Test [1] in a line: Photosensitizing ability of the compound in methanol assessed as singlet oxygen production by measuring quantum yield measured upon irradiation by DPBF based assay. The format is functional.
Test [2] in a line: Photosensitizing ability of the compound assessed as superoxide radical production measured upon irradiation by DHE probe based assay. The format is functional.
The nature of test [3]: Photosensitizing ability of the compound assessed as hydroxyl radical production measured upon irradiation by HPF probe based assay. The format is functional.
Test [4] can be described thus: Phototoxicity against human A549 cells assessed as inhibition of cell growth incubated for 24 hrs measured under normoxia conditions and after one-photon excitation upon irradiation with light at 520 nm, 200 mW/cm2 for 10 mins by MTT assay. The class given is functional, cell-based. The following applies: A549, light or radiation study. A general note: Tetrazolium assays rely on reduction of a dye to a coloured formazan, in cell work by metabolically active cells.

For the next test, the system named is A549. Briefly: Cytotoxicity against human A549 cells assessed as inhibition of cell growth incubated for 24 hrs measured under normoxia conditions by MTT assay. The conditions noted are these: A549, 24 h. The format is functional, cell-based.
For a further test, the system named is HT-29. Nature of the test: Cytotoxicity against human HT-29 cells assessed as inhibition of cell growth incubated for 24 hrs measured under normoxia conditions by MTT assay. The format is functional, cell-based. The conditions noted are these: HT-29, 24 h.
Test [5] has as its system 4T1. Briefly: Cytotoxicity against mouse 4T1 cells assessed as inhibition of cell growth incubated for 24 hrs measured under normoxia conditions by MTT assay. The format is functional, cell-based. The conditions noted are these: 4T1, 24 h.
The nature of test [6]: Phototoxicity against human HT-29 cells assessed as inhibition of cell growth incubated for 24 hrs measured under normoxia conditions and after one-photon excitation upon irradiation with light at 520 nm, 200 mW/cm2 for 10 mins by MTT assay. The format is functional, cell-based. The following applies: HT-29, light or radiation study.
Test [7] can be described thus: Phototoxicity against mouse 4T1 cells assessed as inhibition of cell growth incubated for 24 hrs measured under normoxia conditions and after one-photon excitation upon irradiation with light at 520 nm, 200 mW/cm2 for 10 mins by MTT assay. The format is functional, cell-based. The conditions noted are these: 4T1, light or radiation study.
A short description of test [8]: Phototherapeutic index, ratio of IC50 for cytotoxicity against human A549 cells measured under normoxia conditions to IC50 for phototoxicity against human A549 cells measured under normoxia conditions and after one-photon excitation upon irradiation with light at 520 nm, 200 mW/cm2 for 10 mins. The class given is functional.
A short description of test [9]: Phototherapeutic index, ratio of IC50 for cytotoxicity against human HT-29 cells measured under normoxia conditions to IC50 for phototoxicity against human HT-29 cells measured under normoxia conditions and after one-photon excitation upon irradiation with light at 520 nm, 200 mW/cm2 for 10 mins. The format is functional.
Test [10] relates to 4T1. Nature of the test: Phototherapeutic index, ratio of IC50 for cytotoxicity against mouse 4T1 cells measured under normoxia conditions to IC50 for phototoxicity against mouse 4T1 cells measured under normoxia conditions and after one-photon excitation upon irradiation with light at 520 nm, 200 mW/cm2 for 10 mins. The format is functional.

The structures appear in SMILES notation. The source made the active and inactive calls. The calls are words filed in the database; no cut-off is given here.

For orientation: IC50 means the concentration at which inhibition is half-maximal. `CCn1c2ccc(N)cc2c2cc(/C=C/c3cc[n+](C)c4ccccc34)ccc21.[I-]`: in [1], the Activity came out at 0.04. Further, the outcome in test [2] and in test [3] was Active. Besides, the IC50 came out at 2.23 µM in test [4]; 22.4 µM in the test on A549; 19.3 µM in the test with HT-29; 20.3 µM with 4T1 [5]; 2.77 µM in test [6]; 3.66 µM in test [7]. The “Ratio IC50” value in test [8] was 10; in test [9], 7; with 4T1 [10], 5.
Turning to `CCn1c2ccc(/C=C/c3cc[n+](C)c4ccccc34)cc2c2cc([N+](=O)[O-])ccc21.I`, the Activity in [1] is 0.13. Besides, the outcome in test [2] and in test [3] was Active. For the same compound, the IC50 in test [4] was 4.11 µM; in the test on A549 it was > 100 µM; with HT-29, 59.4 µM; in the test with 4T1 [5] it was 20.1 µM; in [6], 3.55 µM; in [7], 4.81 µM. The “Ratio IC50” value is recorded as 16 in [9] and 4 with 4T1 [10].
